The record followed here is DBAASP.

In brackets after ≈: the same amount, converted by molar mass. Several values for one entry are separate records, joined by “and”; a condition that tells them apart may be missing. Equal values may be shown once.

Some test systems named below: Streptococcus iniae; Staphylococcus aureus; Lactococcus garvieae; Vibrio alginolyticus; Escherichia coli; Pseudomonas aeruginosa; Enterococcus faecalis; Aeromonas salmonicida; Bacillus subtilis 168; Escherichia coli mcr; Escherichia coli K-12; Salmonella sp.; Shigella flexneri; Glaesserella parasuis; Escherichia coli SBS 363; Fusarium oxysporum; Botrytis cinerea.
Holding throughout (assay): ≥ marks a high value that may be exact or a test limit, other limits are often not marked, values filed in µg/mL are converted to µM
The test system of test [1] is Salmonella typhimurium CCARM 8003.
The subject of test [2] is Escherichia coli CCARM 1229.
Test [3] deals with Bacillus subtilis KCTC 1021.
In test [4] the test system is Pseudomonas aeruginosa CCARM 2002.
For test [5], the system named is Acinetobacter baumannii CCARM 12005.
Test [6] has as its system Pseudomonas aeruginosa KCTC 2513.
The subject of test [7] is Pseudomonas aeruginosa KCTC 2004.
Test [8] deals with Staphylococcus aureus CCARM 3108.
Test [9] relates to Staphylococcus aureus CCARM 3114.
The subject of test [10] is Staphylococcus aureus KCTC 3881.
The test system of test [11] is Actinobacillus pleuropneumoniae.
Test [12] concerns Staphylococcus aureus CCARM 3126.
The test system of test [13] is Staphylococcus aureus KCTC 1916.
The test system of test [14] is Aeromonas salmonicida NCTC 7812.
Test [15] concerns Staphylococcus aureus ATCC 29213.
In test [16] the test system is Staphylococcus aureus CCARM 3089.
Test [17] deals with Staphylococcus aureus USA 300.
Test [18] relates to Salmonella typhimurium CVCC 542.
Test [19] deals with Bacillus subtilis KCTC 3068.
Test [20] has as its system Staphylococcus aureus CCARM 3090.
Test [21] concerns Escherichia coli KCTC 1682.
The test system of test [22] is Escherichia coli KCTC 2571.
Test [23] concerns Enterococcus faecalis ATCC 29212.
Test [24] deals with Staphylococcus aureus KCTC 1621.
The subject of test [25] is Pseudomonas aeruginosa PAO1.
Test [26] has as its system Bacillus subtilis KCTC 1022.
For test [27], the system named is Staphylococcus epidermidis KCTC 1917.
Test [28] relates to Escherichia coli KCTC 2593.
Test [29] relates to Pseudomonas aeruginosa KCTC 1637.
The test system of test [30] is Salmonella typhimurium KCTC 1926.
Test [31] concerns Micrococcus luteus CIP 5345.

As a reminder, the MIC is the lowest concentration that inhibits growth of the organism. A higher MIC goes with a less susceptible organism.

On to `CC[C@H](C)[C@H](NC(=O)CNC(=O)[C@H](CCCNC(=N)N)NC(=O)[C@H](Cc1ccccc1)NC(=O)[C@@H](NC(=O)[C@H](Cc1cnc[nH]1)NC(=O)[C@H](Cc1cnc[nH]1)NC(=O)[C@H](Cc1ccccc1)NC(=O)[C@@H](N)Cc1ccccc1)[C@@H](C)CC)C(=O)N[C@H](C(=O)N[C@@H](Cc1cnc[nH]1)C(=O)N[C@H](C(=O)NCC(=O)N[C@@H](CCCCN)C(=O)N[C@H](C(=O)N[C@H](C(=O)N[C@@H](Cc1cnc[nH]1)C(=O)N[C@@H](CCCNC(=N)N)C(=O)N[C@@H](CC(C)C)C(=O)N[C@H](C(=O)N[C@H](C(=O)NCC(=O)O)[C@@H](C)O)C(C)C)[C@@H](C)CC)[C@@H](C)O)C(C)C)C(C)C` [FFHHIFRGIVHVGKTIHRLVTG], for which the minimal inhibitory concentration (MIC) in test [1] turned out to be 4 µM (≈ 10.3 µg/mL); in test [2] it was 4 µM (≈ 10.3 µg/mL); in [3], 2 µM (≈ 5.14 µg/mL); in test [4], 2 µM (≈ 5.14 µg/mL); in test [5], 2 µM (≈ 5.14 µg/mL); against Streptococcus iniae, 1.21 µM (≈ 3.1 µg/mL). For the same compound, the MIC in the test on Staphylococcus aureus is 1.21 µM (≈ 3.1 µg/mL); in [6], 2 µM (≈ 5.14 µg/mL); in [7], 2 µM (≈ 5.14 µg/mL); in [8] it was 4 µM (≈ 10.3 µg/mL); in test [9], 4 µM (≈ 10.3 µg/mL); against Lactococcus garvieae, 1.21 µM (≈ 3.1 µg/mL). Further, the minimum inhibitory concentration (MIC) in test [10] was 2 µM (≈ 5.14 µg/mL); in [11], 6.22 µM (≈ 16 µg/mL); against Vibrio alginolyticus, 1.21 µM (≈ 3.1 µg/mL); in test [12], 4 µM (≈ 10.3 µg/mL); in [13], 1 µM (≈ 2.57 µg/mL); in [14], not below 77.8 µM. For the same compound, the MIC in test [15] turned out to be 2.43 µM (≈ 6.25 µg/mL); against Escherichia coli, 1.21 µM (≈ 3.1 µg/mL); in test [16], 8 µM (≈ 20.6 µg/mL); in test [17] it was 3.1 µM (≈ 7.97 µg/mL); in [18], 6.22 µM (≈ 16 µg/mL); in [19], 2 µM (≈ 5.14 µg/mL). The MIC was 4.86 µM and 12.4 µM against Pseudomonas aeruginosa; 8 µM (≈ 20.6 µg/mL) in test [20]; 2 µM (≈ 5.14 µg/mL) in test [21]; 1 µM (≈ 2.57 µg/mL) in test [22]; 1.22 µM (≈ 3.14 µg/mL) in test [23]; 1.21 µM (≈ 3.1 µg/mL) in the test with Enterococcus faecalis. The MIC in test [24] turned out to be 4 µM (≈ 10.3 µg/mL); with Aeromonas salmonicida it was 1.21 µM (≈ 3.1 µg/mL); in test [25] it was 50 µM (≈ 129 µg/mL); in test [26], 1 µM (≈ 2.57 µg/mL); in [27] it was 2 µM (≈ 5.14 µg/mL); in the test on Bacillus subtilis 168 it was 12.5 µM (≈ 32.2 µg/mL). The MIC with Escherichia coli mcr was 2.2 µM (≈ 5.66 µg/mL); in the test on Escherichia coli K-12 it was 12.5 µM (≈ 32.2 µg/mL); in test [28], 1 µM (≈ 2.57 µg/mL); against Salmonella sp., 6.22 µM (≈ 16 µg/mL); in test [29], 4 µM (≈ 10.3 µg/mL); in the test on Shigella flexneri, 1.21 µM (≈ 3.1 µg/mL). Moreover, the minimal inhibitory concentration (MIC) in test [30] is 2 µM (≈ 5.14 µg/mL); in the test on Glaesserella parasuis, 3.11 µM (≈ 8 µg/mL).
In the case of `NCCCC[C@H](NC(=O)[C@@H]1CCCN1C(=O)[C@@H](N)CCCN=C(N)N)C(=O)N1CCC[C@H]1C(=O)N[C@@H](CCCN=C(N)N)C(=O)N1CCC[C@H]1C(=O)N[C@@H](CCCN=C(N)N)C(=O)N1CCC[C@H]1C(=O)N[C@@H](CCCN=C(N)N)C(=O)N1CCC[C@H]1C(=O)N[C@@H](CCC(=O)O)C(N)=O` [RPKPRPRPRPE], the MIC with Escherichia coli SBS 363 is not below 200 µM; in test [31], not below 200 µM; in the test on Fusarium oxysporum, not below 100 µM; against Botrytis cinerea it was not below 100 µM.
